Test results: the NIST ThermoML archive (doi:10.1007/s10765-009-0625-z)

How the values were obtained:
[1] = Liquid, Constant-volume piezometry
[2] = xn = mol fraction of the nth substance listed; conditions: Liquid

c1ccc2[nH]ccc2c1 [1H-indole]
specific volume [m3/kg], [1]
Conditions	323.15 K	333.15 K	343.15 K	353.15 K
100 kPa	0.0009295	0.000936	0.0009428	0.0009499
10000 kPa	–	0.0009315	0.0009381	0.0009449
20000 kPa	–	0.0009273	0.0009335	0.0009402
30000 kPa	–	0.0009228	0.0009292	0.0009358
40000 kPa	–	0.0009192	0.0009249	0.0009313
50000 kPa	–	0.0009157	0.0009209	0.0009273
60000 kPa	–	–	0.0009173	0.0009231
70000 kPa	–	–	0.000914	0.0009195
80000 kPa	–	–	0.0009103	0.0009158
90000 kPa	–	–	–	0.0009123
100000 kPa	–	–	–	0.0009091
110000 kPa	–	–	–	0.0009059

c1ccc2[nH]ccc2c1 [1H-indole] + c1ccc(-c2ccccc2)cc1
specific volume [m3/kg], [2], 100 kPa
Conditions	303.15 K	313.15 K	323.15 K	333.15 K	343.15 K	353.15 K	363.15 K
x1 = 0.25	–	–	0.0009769	0.0009848	0.0009924	0.001	0.001009
x1 = 0.5	0.0009477	0.000955	0.0009624	0.0009698	0.000977	0.0009848	0.0009924
x1 = 0.75	0.0009328	0.0009393	0.0009462	0.0009538	0.0009599	0.0009675	0.0009747
x1 = 1	–	–	0.0009295	0.000936	0.0009428	0.0009499	–

specific volume [m3/kg], [2], 333.15 K, Constant-volume piezometry
Conditions	x1 = 0.25	x1 = 0.5	x1 = 0.75	x1 = 1
100 kPa	0.0009848	0.0009698	0.0009538	0.000936
10000 kPa	0.0009792	0.0009648	0.0009488	0.0009315
20000 kPa	0.0009737	0.0009601	0.0009442	0.0009273
30000 kPa	–	0.0009553	0.0009399	0.0009228
40000 kPa	–	0.0009507	0.0009356	0.0009192
50000 kPa	–	0.0009464	0.0009316	0.0009157
60000 kPa	–	0.0009423	0.0009278	–
70000 kPa	–	0.0009384	0.0009241	–
80000 kPa	–	0.0009347	0.0009205	–
90000 kPa	–	–	0.0009171	–
100000 kPa	–	–	0.0009139	–
110000 kPa	–	–	0.0009108	–
120000 kPa	–	–	0.0009077	–
130000 kPa	–	–	0.0009047	–
140000 kPa	–	–	0.000902	–
150000 kPa	–	–	0.0008991	–
160000 kPa	–	–	0.0008965	–
170000 kPa	–	–	0.0008939	–

Cc1ccc2ccccc2c1 [2-methylnaphthalene]
[1]
Conditions	specific volume [m3/kg]
303.15 K, 100 kPa	0.001001
313.15 K, 100 kPa	0.001009
323.15 K, 100 kPa	0.001017
333.14 K, 100 kPa	0.001025
333.15 K, 100 kPa	0.001025
333.15 K, 10000 kPa	0.001018
333.15 K, 20000 kPa	0.001012
333.15 K, 30000 kPa	0.001007
333.15 K, 40000 kPa	0.001001
333.15 K, 50000 kPa	0.0009961
333.15 K, 60000 kPa	0.0009915
333.15 K, 70000 kPa	0.0009868
333.15 K, 80000 kPa	0.0009826
333.15 K, 90000 kPa	0.0009784
333.15 K, 100000 kPa	0.0009749
343.15 K, 100 kPa	0.001033
343.15 K, 10000 kPa	0.001026
343.15 K, 20000 kPa	0.00102
343.15 K, 30000 kPa	0.001014
343.15 K, 40000 kPa	0.001008
343.15 K, 50000 kPa	0.001003
343.15 K, 60000 kPa	0.0009977
343.15 K, 70000 kPa	0.0009932
343.15 K, 80000 kPa	0.0009885
343.15 K, 90000 kPa	0.0009843
343.15 K, 100000 kPa	0.0009802
343.15 K, 110000 kPa	0.0009764
343.15 K, 120000 kPa	0.0009725
343.15 K, 130000 kPa	0.0009689
343.15 K, 140000 kPa	0.0009655
353.15 K, 100 kPa	0.001041

Cc1ccc2ccccc2c1 [2-methylnaphthalene] + c1ccc2[nH]ccc2c1
[2], 100 kPa, x2 = 0
Conditions	specific volume [m3/kg]
303.15 K	0.001001
313.15 K	0.001009
323.15 K	0.001017
333.15 K	0.001025
343.15 K	0.001033
353.15 K	0.001041

[2], 333.15 K, Constant-volume piezometry, x2 = 0
Conditions	specific volume [m3/kg]
100 kPa	0.001025
10000 kPa	0.001018
20000 kPa	0.001012
30000 kPa	0.001007
40000 kPa	0.001001
50000 kPa	0.0009961
60000 kPa	0.0009915
70000 kPa	0.0009868
80000 kPa	0.0009826
90000 kPa	0.0009784
100000 kPa	0.0009749

c1ccccc1 [benzene]
Conditions	specific volume [m3/kg]
[1], 293.15 K, 101.33 kPa	0.001138

c1ccc(-c2ccccc2)cc1 [biphenyl]
[1]
Conditions	specific volume [m3/kg]
333.15 K, 100 kPa	0.0009985
343.15 K, 100 kPa	0.001007
353.15 K, 100 kPa	0.001015
353.15 K, 10000 kPa	0.001008
353.15 K, 20000 kPa	0.001002
353.15 K, 30000 kPa	0.0009956
363.15 K, 100 kPa	0.001024
363.16 K, 100 kPa	0.001024
363.16 K, 10000 kPa	0.001016
363.16 K, 20000 kPa	0.00101
363.16 K, 30000 kPa	0.001003
363.16 K, 40000 kPa	0.000997
363.16 K, 50000 kPa	0.0009917
363.16 K, 60000 kPa	0.0009864
363.16 K, 70000 kPa	0.0009815

c1ccc(-c2ccccc2)cc1 [biphenyl] + c1ccc2[nH]ccc2c1
Conditions	specific volume [m3/kg]
[2], 333.15 K, 100 kPa, Constant-volume piezometry, x2 = 0	0.0009985

[2], 100 kPa, x2 = 0
Conditions	specific volume [m3/kg]
333.15 K	0.0009985
343.15 K	0.001007
353.15 K	0.001015
363.15 K	0.001024
